Results as given in ChEMBL document CHEMBL5247656, “Discovery of a Potent, Cooperative, and Selective SOS1 PROTAC ZZ151 with In Vivo Antitumor Efficacy in KRAS-Mutant Cancers” (J Med Chem, 2023).

Columns and labels:
[1] = molecular target: T1, von Hippel-Lindau disease tumor suppressor/Son of sevenless homolog 1 (Homo sapiens) (UniProt Q07889+P40337); assay: PROTAC activity at VHL/SOS1 in human NCI-H358 cells assessed as induction of SOS1 protein degradation at 0.1 uM incubated for 24 hrs by Immunoblot analysis relative to control; assay type: cell-based
T1 sequence (P40337 whole entry, looked up): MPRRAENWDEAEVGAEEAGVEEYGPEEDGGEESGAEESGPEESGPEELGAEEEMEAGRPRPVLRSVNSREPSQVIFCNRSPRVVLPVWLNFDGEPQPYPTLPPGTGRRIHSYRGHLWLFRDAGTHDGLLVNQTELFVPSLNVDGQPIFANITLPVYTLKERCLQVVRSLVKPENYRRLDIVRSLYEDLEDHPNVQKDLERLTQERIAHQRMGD
T1 sequence (Q07889 whole entry, looked up): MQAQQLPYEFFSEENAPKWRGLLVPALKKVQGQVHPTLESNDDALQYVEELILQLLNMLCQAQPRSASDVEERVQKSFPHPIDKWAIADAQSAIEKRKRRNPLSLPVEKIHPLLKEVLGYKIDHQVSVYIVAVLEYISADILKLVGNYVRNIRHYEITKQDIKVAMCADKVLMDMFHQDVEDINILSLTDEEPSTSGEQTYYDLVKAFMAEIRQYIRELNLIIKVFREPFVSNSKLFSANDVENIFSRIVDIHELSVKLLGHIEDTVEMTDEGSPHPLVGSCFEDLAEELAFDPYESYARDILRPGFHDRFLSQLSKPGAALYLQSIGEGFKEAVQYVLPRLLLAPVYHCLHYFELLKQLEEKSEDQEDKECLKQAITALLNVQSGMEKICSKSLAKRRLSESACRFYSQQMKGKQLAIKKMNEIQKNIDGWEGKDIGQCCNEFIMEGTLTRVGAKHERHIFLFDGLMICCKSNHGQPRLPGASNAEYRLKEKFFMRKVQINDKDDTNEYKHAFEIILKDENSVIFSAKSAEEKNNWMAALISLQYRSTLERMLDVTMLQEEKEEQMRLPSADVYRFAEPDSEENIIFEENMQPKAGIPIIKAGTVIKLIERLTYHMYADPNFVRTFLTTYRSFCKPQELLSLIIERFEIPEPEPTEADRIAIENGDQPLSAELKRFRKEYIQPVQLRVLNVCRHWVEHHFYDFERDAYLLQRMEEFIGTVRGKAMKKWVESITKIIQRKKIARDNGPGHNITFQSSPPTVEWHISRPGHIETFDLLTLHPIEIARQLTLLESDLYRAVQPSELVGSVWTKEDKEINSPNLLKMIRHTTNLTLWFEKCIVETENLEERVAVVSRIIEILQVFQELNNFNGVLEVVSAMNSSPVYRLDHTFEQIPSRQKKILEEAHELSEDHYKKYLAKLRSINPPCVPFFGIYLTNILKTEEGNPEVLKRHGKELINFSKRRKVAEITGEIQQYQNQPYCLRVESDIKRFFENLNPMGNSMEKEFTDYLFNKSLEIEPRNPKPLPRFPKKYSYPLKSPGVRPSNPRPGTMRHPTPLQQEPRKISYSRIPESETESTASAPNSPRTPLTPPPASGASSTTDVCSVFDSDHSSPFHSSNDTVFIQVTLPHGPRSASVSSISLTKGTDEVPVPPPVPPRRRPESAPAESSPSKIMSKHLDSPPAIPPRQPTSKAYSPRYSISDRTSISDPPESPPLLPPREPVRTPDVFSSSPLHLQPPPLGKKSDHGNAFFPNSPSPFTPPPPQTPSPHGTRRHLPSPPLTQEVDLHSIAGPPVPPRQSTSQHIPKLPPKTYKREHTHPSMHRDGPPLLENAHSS

[2] = molecular target: T1, von Hippel-Lindau disease tumor suppressor/Son of sevenless homolog 1 (Homo sapiens); assay: PROTAC activity at VHL/SOS1 in human NCI-H358 cells assessed as induction of SOS1 protein degradation at 1.0 uM incubated for 24 hrs by Immunoblot analysis relative to control; assay type: cell-based

SMILES	Activity [1]	Activity [2]
COc1cc2nc(C)nc(N[C@H](C)c3cc(N)cc(C(F)(F)F)c3)c2cc1C1CCN(C(=O)[C@H]2CC[C@H](C(=O)N[C@H](C(=O)N3C[C@H](O)C[C@H]3C(=O)N[C@@H](C)c3ccc(-c4scnc4C)cc3)C(C)(C)C)CC2)CC1	3.24%	8.52%
COc1cc2nc(C)nc(N[C@H](C)c3cc(N)cc(C(F)(F)F)c3)c2cc1C1CCN(C(=O)CCCCCCCC(=O)N[C@H](C(=O)N2C[C@H](O)C[C@H]2C(=O)N[C@@H](C)c2ccc(-c3scnc3C)cc2)C(C)(C)C)CC1	31.4%	80.2%
COc1cc2nc(C)nc(N[C@H](C)c3cc(N)cc(C(F)(F)F)c3)c2cc1C1CCN(C(=O)C2CCN(CCC(=O)N[C@H](C(=O)N3C[C@H](O)C[C@H]3C(=O)N[C@@H](C)c3ccc(-c4scnc4C)cc3)C(C)(C)C)CC2)CC1	21.7%	22.6%
COc1cc2nc(C)nc(N[C@H](C)c3cc(N)cc(C(F)(F)F)c3)c2cc1C1CCN(C(=O)COCCOCC(=O)N[C@H](C(=O)N2C[C@H](O)C[C@H]2C(=O)N[C@@H](C)c2ccc(-c3scnc3C)cc2)C(C)(C)C)CC1	19.6%	62.5%
COc1cc2nc(C)nc(N[C@H](C)c3cc(N)cc(C(F)(F)F)c3)c2cc1C1CCN(C(=O)C2CN(CCC(=O)N[C@H](C(=O)N3C[C@H](O)C[C@H]3C(=O)N[C@@H](C)c3ccc(-c4scnc4C)cc3)C(C)(C)C)C2)CC1	9.8%	11.2%
COc1cc2nc(C)nc(N[C@H](C)c3cc(N)cc(C(F)(F)F)c3)c2cc1C1CCN(CCCCCCCC(=O)N[C@H](C(=O)N2C[C@H](O)C[C@H]2C(=O)N[C@@H](C)c2ccc(-c3scnc3C)cc2)C(C)(C)C)CC1	9.25%	7.32%
COc1cc2nc(C)nc(N[C@H](C)c3cc(N)cc(C(F)(F)F)c3)c2cc1C1CCN(C(=O)CCCC(=O)N[C@H](C(=O)N2C[C@H](O)C[C@H]2C(=O)N[C@@H](C)c2ccc(-c3scnc3C)cc2)C(C)(C)C)CC1	9.28%	11.7%
COc1cc2nc(C)nc(N[C@H](C)c3cc(N)cc(C(F)(F)F)c3)c2cc1C1CCN(CCCCCC(=O)N[C@H](C(=O)N2C[C@H](O)C[C@H]2C(=O)N[C@@H](C)c2ccc(-c3scnc3C)cc2)C(C)(C)C)CC1	3.04%	2.02%
COc1cc2nc(C)nc(N[C@H](C)c3cc(N)cc(C(F)(F)F)c3)c2cc1C1CCN(C(=O)CCCCCCCCCC(=O)N[C@H](C(=O)N2C[C@H](O)C[C@H]2C(=O)N[C@@H](C)c2ccc(-c3scnc3C)cc2)C(C)(C)C)CC1	9.65%	37.9%
COc1cc2nc(C)nc(N[C@H](C)c3cc(N)cc(C(F)(F)F)c3)c2cc1C1CCN(C(=O)CCCCCCCCC(=O)N[C@H](C(=O)N2C[C@H](O)C[C@H]2C(=O)N[C@@H](C)c2ccc(-c3scnc3C)cc2)C(C)(C)C)CC1	0%	0%
